Results published in paper PMC7551886, “Antitumour Effects of Astaxanthin and Adonixanthin on Glioblastoma” (Marine Drugs, 2020).

Key:
NADPH oxidase 4 (Nox4) = experiment: Immunoblotting, Nox4 expression in GL261; type: cell-based, mouse; settings: GL261, 10 µM, 6 h
Protocol: (§1) GL261 cell was seeded at 2.5 × 10^4 cells per well in 24-well plates with culture medium supplemented with 10% FBS. After 24 h of incubation, the medium was changed to DMEM containing 10% FBS and 0.1%DMSO PBS, 300 μM temozolomide, 10 μM astaxanthin, or 10 μM adonixanthin was added for 6 and 48 h. Cells were lysed in a special buffer (RIPA buffer R0278; Sigma-Aldrich, St. Louis, MO, USA) with a protease inhibitor cocktail (Sigma-Aldrich), phosphatase inhibitor cocktails 2 and 3 (Sigma-Aldrich), and sample buffer (Wako, Osaka, Japan). The protein concentration was determined by comparison with a known concentration of bovine serum albumin using the BCA Protein Assay Kit (Thermo Fisher Scientific). The amount of total protein was 2 μg. […] The band intensity was […] using an Immuno Star LD (Wako). Band intensity was measured using an LAS-4000 UV mini Luminescent Image Analyzer (Fujifilm, Tokyo Japan) and Multi Gauge Version 3.0 (Fujifilm). The phosphorylation of ERK1/2, Akt, and p38 MAPK was measured by normalizing against total ERK1/2, total Akt, and total p38 MAPK. […]

[1] = Body weight of mice during administration; type: in vivo, mouse
Protocol: In the experiment of the murine orthotopic glioblastoma model, oral administration of each astaxanthin (10 and 30 mg/kg) and adonixanthin (10 and 30 mg/kg) was initiated 3 days after intracranial injection of GL261 cells and was continued for 10 days. In the experiment of the brain tissue absorption with oral astaxanthin or adonixanthin, after one week of adaptation, ICR mice were randomly divided into the following three groups: control group, astaxanthin group (50 mg/kg), and adonixanthin group (50 mg/kg). Mice were orally administered each reagent suspended in olive oil (5 mL/kg) by the daily single dose for 10 days. The control group was treated by olive oil alone (5 mL/kg).

[2] = known; no reference given; cited from earlier work
U251MG cells = experiment: Cell viability (CCK-8 assay) in U251MG; type: cell-based, human; settings: treated for 96 h
Protocol: U251MG, GL261, or U87MG cells were seeded onto 96-well plates at a density of 2 × 10^3 cells/well with DMEM supplemented with 10% FBS and then incubated for 24 h, after which the culture medium was changed to DMEM containing 10% FBS. Then, astaxanthin, adonixanthin or temozolomide (Tokyo Chemical Industry Co., Ltd., Tokyo, Japan) were added to the culture. Cell proliferation was determined using the CCK-8 assay according to the manufacturer’s instructions (Dojindo, Kumamoto, Japan). After each incubation, 10 μL of CCK-8 solution were added to each well. Plates were incubated for 3 h for 37 °C, and the absorbance was read at 450 nm with a reference wavelength of 630 nm using a Varioscan Flash 2.4 microplate reader (Thermo Fisher Scientific, Waltham, MA, USA).

hippocampal inflammation = tested on: hippocampal inflammation; parameters: method as in PMID 28017669; settings: diabetic mice, oral 25 mg/kg ref 45; cited from earlier work
fibronectin = experiment: Immunoblotting, fibronectin expression in GL261; type: cell-based, mouse; settings: GL261, 10 µM, 48 h
Protocol: as §1

CC1=C(/C=C/C(C)=C/C=C/C(C)=C/C=C/C=C(C)/C=C/C=C(C)/C=C/C2=C(C)C(=O)[C@@H](O)CC2(C)C)C(C)(C)C[C@H](O)C1=O [Astaxanthin, astaxanthin]
expression of Nox4 (NADPH oxidase 4 (Nox4)): no change | changes in body weight ([1]; 10 days of administration): No significant changes | body weight of treated mice ([1]; after 10 days of administration, vehicle 34.72 ± 2.05 g): 35.50 ± 1.95 g | dose that does not show adverse effects even with long-term administration [2]: 50 mg/kg | concentration above which cell viability was suppressed (U251MG cells): more than 1 µM | hippocampal inflammation (hippocampal inflammation): inhibited hippocampal inflammation

CC1=C(/C=C/C(C)=C/C=C/C(C)=C/C=C/C=C(C)/C=C/C=C(C)/C=C/C2=C(C)C(=O)[C@@H](O)CC2(C)C)C(C)(C)C[C@H](O)C1 [Adonixanthin, adonixanthin]
expression of Nox4 (NADPH oxidase 4 (Nox4)): significantly decreased | expression of fibronectin (fibronectin): decreased | concentration above which cell viability was suppressed (U251MG cells): > 0.1 µM
